# Test results published in US9211310B2, “Use of a Chinese medicine composition in preparing medicaments for treating secondary prevention of myocardial infarction” (TASLY PHARMACEUTICAL GROUP CO., LTD, priority 2010, dated 2015).
# System: patients after acute myocardial infarction
# Assay: Life quality, Seattle Angina Questionnaire (SAQ), same clinical trial
# Format: in vivo, human
# Settings: PP
# Excerpt: 3508 patients who were in accordance with the diagnostic standards of AMI for 28 days to 2 years and differentiated as Qi deficiency and blood stagnation syndrome by TCM were studied. 0.5 g Chinese medicine composition prepared by the method of EXAMPLE 1 (Coded as QSYQ) was administrated half an hour after meal, 3 times per day.
# There were 19 questions in the Seattle angina questionnaire (SAQ), including 5 parts: physical limitation (PL), anginal stability (AS), anginal frequency (AF), treatment satisfaction (TS) and disease perception (DP). After being given necessary explanation by doctors, the questions were answered independently by patients.
# They included the overall survival time, angina pectoris score, TCM symptom score and life quality score, where angina pectoris score, TCM symptom score and life quality score were evaluated at randomization, in 1st, 3rd, 6th, 9th, 12th month after treatment and 18th month after follow-up.
# All evaluation results of SAQ were described during the period of observation, and Wilcoxon rank sum test was used for inter-group comparison.
# The evaluation results in the SAQ were depicted in different observations, and inter-group comparison was tested by Wilcoxon Rank-sum test.
structure (smiles),measurement,setting,value
"CC(=O)Oc1ccccc1C(=O)O [Control group, aspirine]","SAQ Question 1-4: Not limited, percent of patients",Follow-up,(53.63%)
same,"SAQ Question 1-4: Other reasons, number of patients",Follow-up,10
same,"SAQ Question 1-4: Other reasons, percent of patients",Follow-up,(0.71%)
same,"SAQ Question 1-4: Severely limited, number of patients",Follow-up,5
same,"SAQ Question 1-4: Severely limited, percent of patients",Follow-up,(0.36%)
same,"SAQ Question 1-4: Slightly limited, number of patients",Follow-up,428
same,"SAQ Question 1-4: Slightly limited, percent of patients",Follow-up,(30.44%)
same,"SAQ Question 1-5: Mildly limited, number of patients",Follow-up,181
same,"SAQ Question 1-5: Mildly limited, percent of patients",Follow-up,(12.87%)
same,"SAQ Question 1-5: Moderately limited, number of patients",Follow-up,57
same,"SAQ Question 1-5: Moderately limited, percent of patients",Follow-up,(4.05%)
same,"SAQ Question 1-5: Not limited, number of patients",Follow-up,765
same,"SAQ Question 1-5: Not limited, percent of patients",Follow-up,(54.41%)
same,"SAQ Question 1-5: Other reasons, number of patients",Follow-up,8
same,"SAQ Question 1-5: Other reasons, percent of patients",Follow-up,(0.57%)
same,"SAQ Question 1-5: Severely limited, number of patients",Follow-up,9
same,"SAQ Question 1-5: Severely limited, percent of patients",Follow-up,(0.64%)
same,"SAQ Question 1-5: Slightly limited, number of patients",Follow-up,386
same,"SAQ Question 1-5: Slightly limited, percent of patients",Follow-up,(27.45%)
same,"SAQ Question 1-9: Mildly limited, % of cases",Follow-up,(20.25%)
same,"SAQ Question 1-9: Mildly limited, cases",Follow-up,276
same,"SAQ Question 1-9: Moderately limited, % of cases",Follow-up,(21.13%)
same,"SAQ Question 1-9: Moderately limited, cases",Follow-up,288
same,"SAQ Question 1-9: Not limited, % of cases",Follow-up,(6.09%)
same,"SAQ Question 1-9: Not limited, cases",Follow-up,83
same,"SAQ Question 1-9: Other reasons, % of cases",Follow-up,(4.77%)
same,"SAQ Question 1-9: Other reasons, cases",Follow-up,65
same,"SAQ Question 1-9: Severely-limited, % of cases",Follow-up,(27.29%)
same,"SAQ Question 1-9: Severely-limited, cases",Follow-up,372
same,"SAQ Question 1-9: Slightly limited, % of cases",Follow-up,(20.47%)
same,"SAQ Question 1-9: Slightly limited, cases",Follow-up,279
same,"8th question: Dissatisfied, patients (%)",1 month after treatment,(0.13%)
same,"8th question: Highly satisfied, patients (%)",1 month after treatment,(17.41%)
same,"8th question: Mostly dissatisfied, patients (%)",1 month after treatment,(4.23%)
same,"8th question: Mostly satisfied, patients (%)",1 month after treatment,(48.99%)
same,"8th question: Partly satisfied, patients (%)",1 month after treatment,(29.23%)
same,"9th question: Few, patients (%)",1 month after treatment,(25.86%)
same,"9th question: Mild, patients (%)",1 month after treatment,(35.93%)
same,"9th question: Moderate, patients (%)",1 month after treatment,(18.94%)
same,"9th question: Severe, patients (%)",1 month after treatment,(2.01%)
same,"9th question: Uneffective, patients (%)",1 month after treatment,(17.26%)
same,"10th question: Dissatisfied, patients (%)",1 month after treatment,(22.24%)
same,"10th question: Highly satisfied, patients (%)",1 month after treatment,(4.23%)
same,"10th question: Mostly dissatisfied, patients (%)",1 month after treatment,(23.12%)
same,"10th question: Mostly satisfied, patients (%)",1 month after treatment,(19.83%)
same,"10th question: Partly satisfied, patients (%)",1 month after treatment,(30.58%)
same,"11th question: Continuously worried, patients (%)",1 month after treatment,(6.04%)
same,"11th question: No worried, patients (%)",1 month after treatment,(4.84%)
same,"11th question: Occasionally worried, patients (%)",1 month after treatment,(41.24%)
same,"11th question: Often worried, patients (%)",1 month after treatment,(21.76%)
same,"11th question: Seldom worried, patients (%)",1 month after treatment,(26.12%)
same,"SAQ 4th question, 1-2 times per week: % of patients",1 month after treatment,(17.41%)
same,"SAQ 4th question, 1-2 times per week: number of patients",1 month after treatment,259
same,"SAQ 4th question, 1-3 times per day: % of patients",1 month after treatment,(6.52%)
same,"SAQ 4th question, 1-3 times per day: number of patients",1 month after treatment,97
same,"SAQ 4th question, <1 time per week: % of patients",1 month after treatment,(9.07%)
same,"SAQ 4th question, <1 time per week: number of patients",1 month after treatment,135
same,"SAQ 4th question, Not used: % of patients",1 month after treatment,(53.23%)
same,"SAQ 4th question, Not used: number of patients",1 month after treatment,792
same,"SAQ 4th question, ≧3 times per week: % of patients",1 month after treatment,(13.71%)
same,"SAQ 4th question, ≧3 times per week: number of patients",1 month after treatment,204
same,"SAQ 4th question, ≧4 times per day: % of patients",1 month after treatment,(0.07%)
same,"SAQ 4th question, ≧4 times per day: number of patients",1 month after treatment,1
same,"SAQ 5th question, Few: % of patients",1 month after treatment,(21.67%)
same,"SAQ 5th question, Few: number of patients",1 month after treatment,322
same,"SAQ 5th question, Mild: % of patients",1 month after treatment,(28.94%)
same,"SAQ 5th question, Mild: number of patients",1 month after treatment,430
same,"SAQ 5th question, Moderate: % of patients",1 month after treatment,(18.24%)
same,"SAQ 5th question, Moderate: number of patients",1 month after treatment,271
same,"SAQ 5th question, None: % of patients",1 month after treatment,(25.44%)
same,"SAQ 5th question, None: number of patients",1 month after treatment,378
same,"SAQ 5th question, Not medicated by doctors: % of patients",1 month after treatment,(3.57%)
same,"SAQ 5th question, Not medicated by doctors: number of patients",1 month after treatment,53
same,"SAQ 5th question, Severe: % of patients",1 month after treatment,(2.15%)
same,"SAQ 5th question, Severe: number of patients",1 month after treatment,32
same,"SAQ 6th question, Dissatisfied: % of patients",1 month after treatment,(0.20%)
same,"SAQ 6th question, Dissatisfied: number of patients",1 month after treatment,3
